For this data set, the system named is skin epidermis.

The record followed here is patent EP0308190A2, “Ultra mild skin cleansing toilet bar with selected mixed polymers” (THE PROCTER & GAMBLE COMPANY, priority 1987, dated 1989).

As to Cocoyl Isethionate, the “Relative Skin Barrier Penetration Value” was found to be 40.
